Tests used:
[1] = molecular target: recombinant human PI3Kγ (Homo sapiens (Human), UniProt P48736); assay: Inhibitory activity on PI3K kinase (ADP-Glo Kinase Assay); format: biochemical; conditions: for IC50: ADP-Glo, ATP 10 μM
Source text: The following method is used to determine the degree of inhibition of recombinant human PI3Kα, PI3Kβ, PI3Kγ and PI3Kδ kinase activity by the compounds of the present invention under in vitro conditions. Promega's ADP-Glo Kinase Assay Kit (Cat. No. V9102) was used in this method. The above kit was a luminescence kinase detection kit, which was used to detect the ADP content produced by the kinase reaction. The ADP content was positively correlated with the kinase activity. By measuring the ADP content, the inhibition of the compound on the activity of PI3Kα, PI3Kβ, PI3Kγ and PI3Kδ kinases was reflected. For detailed experimental operations, please refer to the kit instructions. Recombinant human PI3Kα, PI3Kγ, and PI3Kδ were purchased from Invitrogen, and PI3Kβ was purchased from Promega (category numbers were PI3Kα: PV4788; PI3Kβ: V1751; PI3Kγ: PV4786 and PI3Kδ: PV6451 separately).

[2] = Metabolic stability in liver microsomes; format: in vitro ADME; conditions: human liver microsomes 0.5 mg/mL, 1 μM compound, NADPH 1 mM; read-out: half-life period/(T1/2, min)
Procedure: The test compound was co-incubated with human liver microsomes, and coenzyme NADPH was added to initiate the reaction. At 0, 5, 15, 30 and 60 minutes, 20 μL of incubation solution was taken out and transferred to 200 μL of acetonitrile containing internal standard to stop the reaction. After protein precipitation, centrifugation was performed at 3,700 rpm for 10 minutes and the supernatant was taken. The supernatant was diluted 1:1 with water and analyzed by LC-MS/MS method. According to the elimination half-life of the test compound in the incubation system, the in vitro intrinsic clearance rate was calculated. Midazolam was used as the internal reference compound and incubated for two aliquots in parallel.
The ratio of peak area of the analyte/internal standard (Aanalyte/AIS) was obtained by the instrument. The remaining percentage (% Control) was calculated from the ratio of Aanalyte/AIS in the non-zero time point sample to the zero time point sample. Ln (% Control) versus incubation time was plotted and a linear fit was performed. The clearance constant (k, min^−1), the clearance half-life (T1/2, min) and the in vitro intrinsic clearance rate (CLint, mL·min^−1·mg^−1 proteins) of the test compound were calculated by the following equations.
Cprotein(mg·mL^−1) refers to the concentration of microsomal protein in the incubation system.

[3] = molecular target: recombinant human PI3Kα (Homo sapiens (Human), UniProt P42336); assay: Inhibitory activity on PI3K kinase (ADP-Glo Kinase Assay)
Chain of recombinant human PI3Kα (P42336 whole entry): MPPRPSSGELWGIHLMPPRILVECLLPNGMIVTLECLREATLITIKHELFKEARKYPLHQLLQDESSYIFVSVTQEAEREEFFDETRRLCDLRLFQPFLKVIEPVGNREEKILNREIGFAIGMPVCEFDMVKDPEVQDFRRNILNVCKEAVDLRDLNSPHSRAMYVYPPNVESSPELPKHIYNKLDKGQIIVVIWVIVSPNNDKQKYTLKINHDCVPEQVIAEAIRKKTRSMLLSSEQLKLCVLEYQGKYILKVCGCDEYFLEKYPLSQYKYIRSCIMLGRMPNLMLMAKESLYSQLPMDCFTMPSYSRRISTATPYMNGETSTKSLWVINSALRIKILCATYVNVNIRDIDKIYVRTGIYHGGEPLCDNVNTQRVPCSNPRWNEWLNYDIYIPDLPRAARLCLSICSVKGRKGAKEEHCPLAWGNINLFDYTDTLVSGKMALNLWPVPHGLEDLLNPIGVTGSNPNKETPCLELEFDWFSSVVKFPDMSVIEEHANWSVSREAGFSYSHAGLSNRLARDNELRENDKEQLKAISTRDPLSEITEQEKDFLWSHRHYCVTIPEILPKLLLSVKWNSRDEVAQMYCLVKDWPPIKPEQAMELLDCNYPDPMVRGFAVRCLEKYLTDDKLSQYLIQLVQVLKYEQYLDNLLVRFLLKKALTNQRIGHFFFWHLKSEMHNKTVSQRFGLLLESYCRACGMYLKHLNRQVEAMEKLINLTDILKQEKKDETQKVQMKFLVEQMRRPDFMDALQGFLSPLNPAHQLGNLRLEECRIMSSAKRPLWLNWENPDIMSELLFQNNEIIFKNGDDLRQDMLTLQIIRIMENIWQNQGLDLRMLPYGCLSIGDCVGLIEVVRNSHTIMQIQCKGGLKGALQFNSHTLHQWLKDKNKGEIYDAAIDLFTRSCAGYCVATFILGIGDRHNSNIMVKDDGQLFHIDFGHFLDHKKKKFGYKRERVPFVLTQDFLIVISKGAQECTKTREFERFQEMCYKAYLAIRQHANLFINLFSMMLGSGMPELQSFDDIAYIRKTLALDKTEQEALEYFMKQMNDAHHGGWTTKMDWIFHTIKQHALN
Chain of recombinant human PI3Kα (P27986 whole entry partner): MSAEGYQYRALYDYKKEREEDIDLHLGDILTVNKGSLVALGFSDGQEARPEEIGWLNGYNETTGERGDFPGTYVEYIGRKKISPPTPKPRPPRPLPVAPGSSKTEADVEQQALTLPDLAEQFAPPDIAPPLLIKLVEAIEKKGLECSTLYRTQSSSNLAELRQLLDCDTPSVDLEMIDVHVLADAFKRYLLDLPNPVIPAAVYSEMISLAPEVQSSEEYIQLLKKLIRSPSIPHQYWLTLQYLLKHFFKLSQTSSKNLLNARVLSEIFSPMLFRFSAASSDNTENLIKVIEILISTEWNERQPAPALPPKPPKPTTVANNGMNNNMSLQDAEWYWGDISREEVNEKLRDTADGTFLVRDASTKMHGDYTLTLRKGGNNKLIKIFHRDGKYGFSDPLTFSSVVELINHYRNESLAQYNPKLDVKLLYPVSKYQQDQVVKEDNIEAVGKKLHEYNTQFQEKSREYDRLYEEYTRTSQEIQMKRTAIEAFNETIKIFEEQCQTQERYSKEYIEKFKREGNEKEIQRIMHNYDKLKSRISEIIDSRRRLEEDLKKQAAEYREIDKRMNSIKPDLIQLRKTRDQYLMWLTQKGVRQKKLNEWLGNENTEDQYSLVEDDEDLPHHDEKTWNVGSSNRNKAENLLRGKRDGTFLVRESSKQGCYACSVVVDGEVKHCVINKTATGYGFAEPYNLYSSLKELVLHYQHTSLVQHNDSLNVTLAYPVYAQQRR
Source text: (§3) The following method is used to determine the degree of inhibition of recombinant human PI3Kα, PI3Kβ, PI3Kγ and PI3Kδ kinase activity by the compounds of the present invention under in vitro conditions. Promega's ADP-Glo Kinase Assay Kit (Cat. No. V9102) was used in this method. The above kit was a luminescence kinase detection kit, which was used to detect the ADP content produced by the kinase reaction. The ADP content was positively correlated with the kinase activity. By measuring the ADP content, the inhibition of the compound on the activity of PI3Kα, PI3Kβ, PI3Kγ and PI3Kδ kinases was reflected. […] Recombinant human PI3Kα, PI3Kγ, and PI3Kδ were purchased from Invitrogen, and PI3Kβ was purchased from Promega (category numbers were PI3Kα: PV4788; PI3Kβ: V1751; PI3Kγ: PV4786 and PI3Kδ: PV6451 separately).

[4] = molecular target: recombinant human PI3Kβ (Homo sapiens (Human), UniProt P42338); assay: as above
Chain of recombinant human PI3Kβ (P42338 whole entry): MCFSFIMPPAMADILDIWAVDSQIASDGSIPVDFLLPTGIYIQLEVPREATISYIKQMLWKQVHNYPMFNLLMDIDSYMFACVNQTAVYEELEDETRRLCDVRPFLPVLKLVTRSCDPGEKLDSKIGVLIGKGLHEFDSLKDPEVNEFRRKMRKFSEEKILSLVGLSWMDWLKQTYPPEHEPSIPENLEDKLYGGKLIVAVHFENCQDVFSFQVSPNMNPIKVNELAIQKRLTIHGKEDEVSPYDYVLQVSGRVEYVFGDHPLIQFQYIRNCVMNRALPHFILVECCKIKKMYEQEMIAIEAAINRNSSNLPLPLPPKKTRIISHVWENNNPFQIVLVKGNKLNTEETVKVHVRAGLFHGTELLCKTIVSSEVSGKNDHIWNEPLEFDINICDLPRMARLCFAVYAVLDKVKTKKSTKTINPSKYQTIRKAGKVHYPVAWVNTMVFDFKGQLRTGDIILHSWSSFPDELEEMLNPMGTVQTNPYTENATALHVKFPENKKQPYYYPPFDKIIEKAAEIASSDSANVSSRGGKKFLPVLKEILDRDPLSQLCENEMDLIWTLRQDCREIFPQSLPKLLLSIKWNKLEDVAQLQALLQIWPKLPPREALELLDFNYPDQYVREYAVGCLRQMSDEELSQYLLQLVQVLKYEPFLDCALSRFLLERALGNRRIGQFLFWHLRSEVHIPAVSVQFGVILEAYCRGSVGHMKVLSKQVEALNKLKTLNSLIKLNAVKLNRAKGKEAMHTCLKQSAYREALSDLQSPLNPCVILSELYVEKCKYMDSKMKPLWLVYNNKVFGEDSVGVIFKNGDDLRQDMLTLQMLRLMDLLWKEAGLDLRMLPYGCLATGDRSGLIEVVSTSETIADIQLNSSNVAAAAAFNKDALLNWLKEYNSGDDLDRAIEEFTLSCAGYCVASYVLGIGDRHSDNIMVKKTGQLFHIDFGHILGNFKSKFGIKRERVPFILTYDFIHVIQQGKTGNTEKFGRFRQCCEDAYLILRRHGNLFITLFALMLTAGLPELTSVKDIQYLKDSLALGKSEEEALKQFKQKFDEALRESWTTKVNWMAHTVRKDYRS
Chain of recombinant human PI3Kβ (P27986 whole entry partner): as the sequence (P27986 whole entry partner) above
Source text: as §3

[5] = molecular target: recombinant human PI3Kδ (Homo sapiens (Human), UniProt O00329); assay: as above
Chain of recombinant human PI3Kδ (O00329 whole entry): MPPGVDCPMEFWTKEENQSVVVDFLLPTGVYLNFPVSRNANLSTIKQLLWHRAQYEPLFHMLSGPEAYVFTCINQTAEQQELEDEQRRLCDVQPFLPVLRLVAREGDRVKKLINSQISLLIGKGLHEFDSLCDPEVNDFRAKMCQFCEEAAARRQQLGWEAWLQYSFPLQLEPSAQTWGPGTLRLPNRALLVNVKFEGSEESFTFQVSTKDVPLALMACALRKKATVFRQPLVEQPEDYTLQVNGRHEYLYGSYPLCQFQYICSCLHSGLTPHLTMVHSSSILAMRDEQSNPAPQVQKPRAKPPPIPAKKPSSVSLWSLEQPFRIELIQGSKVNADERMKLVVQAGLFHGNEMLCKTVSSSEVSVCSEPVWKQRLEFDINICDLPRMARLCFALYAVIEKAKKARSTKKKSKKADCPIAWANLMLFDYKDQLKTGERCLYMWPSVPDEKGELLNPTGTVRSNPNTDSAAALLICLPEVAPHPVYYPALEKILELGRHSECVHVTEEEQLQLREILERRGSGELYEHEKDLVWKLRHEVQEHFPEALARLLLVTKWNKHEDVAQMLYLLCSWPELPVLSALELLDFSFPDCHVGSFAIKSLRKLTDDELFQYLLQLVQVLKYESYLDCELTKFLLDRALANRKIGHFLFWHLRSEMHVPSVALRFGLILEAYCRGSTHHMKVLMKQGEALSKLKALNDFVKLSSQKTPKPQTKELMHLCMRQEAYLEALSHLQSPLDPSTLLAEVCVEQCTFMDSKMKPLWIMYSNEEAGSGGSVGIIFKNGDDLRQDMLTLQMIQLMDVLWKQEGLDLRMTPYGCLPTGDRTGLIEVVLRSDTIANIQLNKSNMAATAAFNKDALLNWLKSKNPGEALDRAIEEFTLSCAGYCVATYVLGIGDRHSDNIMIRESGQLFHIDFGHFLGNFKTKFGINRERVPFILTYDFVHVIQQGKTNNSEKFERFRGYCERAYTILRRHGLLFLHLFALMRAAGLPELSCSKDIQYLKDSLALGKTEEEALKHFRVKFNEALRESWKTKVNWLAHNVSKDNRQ
Chain of recombinant human PI3Kδ (P27986 whole entry partner): as the sequence (P27986 whole entry partner) above
Source text: as §3

[6] = Oral pharmacokinetics in ICR mice; format: in vivo; conditions: male, mouse, plasma, Oral (5 mg/kg); for AUC(0-inf): read-out: Area under the curve AUC0-∞; for bioavailability: read-out: Bioavailability F; for Cmax: read-out: Plasma concentration Cmax
Procedure: (§1) Using ICR mice as the test animals, the mice were intragastrically administrated with the compound of the present invention. LC/MS/MS method was used to determine the drug concentration in the plasma at different times to study the pharmacokinetic characteristics of the compound of the present invention in mice.
(§2) An appropriate amount of the compound to be tested was weighed, and 0.5% sodium carboxymethylcellulose (containing 0.05% Tween80) was added. The mixture was vortexed, and sonicated so that the solid was ultrasonically dispersed uniformly to obtain a suspension; 100 μL×2 of the preparation were aspirated, and placed in 1.5-mL EP tubes, stored at 2 to 8° C. The concentration of the preparation was 0.5 mg/mL.
Twenty-seven healthy adult ICR male mice were fasted overnight and then intragastrically administered (dosage of administration was 5 mg/kg), and fed 4 hours after administration.
At 0.083 hours, 0.25 hours, 0.5 hours, 1 hour, 2 hours, 4 hours, 8 hours, 12 hours, and 24 hours after administration, 80 μL of blood was collected from the orbital vein. About 0.08 mL of blood was collected, and placed in EDTA-K2 anticoagulation tube. […] The collected plasma was stored at −40 to −20° C. before analysis. The […] method was used to determine the content of the test compound in the plasma of ICR mice after intragastric administration of different compounds.

[7] = Oral pharmacokinetics in SD rats; format: in vivo; conditions: male, rat, plasma, Oral (5 mg/kg); for AUC(0-inf): read-out: Area under the curve AUC0-∞; for bioavailability: read-out: Bioavailability F; for half-life: read-out: Half-life period T1/2 (converted); for Cmax: read-out: Plasma concentration Cmax
Procedure: as §1, with “SD rats” for “ICR mice”, “as” for “as the”, “rats” for “mice”, “rats.” for “mice.”
as §2, with “obtain a suspension. 100 μL×2” for “obtain a suspension; 100 μL×2”, “of the filtered preparation were” for “of the preparation were”, “at […].” for “at 2 to 8° C.”
Nine healthy adult male SD rats were fasted overnight and then intragastrically administered (dosage of administration was 5 mg/kg), and fed 4 hours after administration.
About 0.2 mL of blood was collected from the jugular vein at 0.083 hours, 0.25 hours, 0.5 hours, 1 hour, 2 hours, 4 hours, 8 hours, 12 hours, and 24 hours after administration, and heparin sodium was used for anticoagulation. The collected blood samples were placed on ice and centrifuged to separate the plasma (centrifugation conditions: 1500 g, 10 minutes). The collected plasma was stored at −40 to −20° C. before analysis. The LC-MS/MS method was used to determine the content of the test compound in the plasma of SD rats after intragastric administration of different compounds.

Chain of recombinant human PI3Kγ (P48736 whole entry): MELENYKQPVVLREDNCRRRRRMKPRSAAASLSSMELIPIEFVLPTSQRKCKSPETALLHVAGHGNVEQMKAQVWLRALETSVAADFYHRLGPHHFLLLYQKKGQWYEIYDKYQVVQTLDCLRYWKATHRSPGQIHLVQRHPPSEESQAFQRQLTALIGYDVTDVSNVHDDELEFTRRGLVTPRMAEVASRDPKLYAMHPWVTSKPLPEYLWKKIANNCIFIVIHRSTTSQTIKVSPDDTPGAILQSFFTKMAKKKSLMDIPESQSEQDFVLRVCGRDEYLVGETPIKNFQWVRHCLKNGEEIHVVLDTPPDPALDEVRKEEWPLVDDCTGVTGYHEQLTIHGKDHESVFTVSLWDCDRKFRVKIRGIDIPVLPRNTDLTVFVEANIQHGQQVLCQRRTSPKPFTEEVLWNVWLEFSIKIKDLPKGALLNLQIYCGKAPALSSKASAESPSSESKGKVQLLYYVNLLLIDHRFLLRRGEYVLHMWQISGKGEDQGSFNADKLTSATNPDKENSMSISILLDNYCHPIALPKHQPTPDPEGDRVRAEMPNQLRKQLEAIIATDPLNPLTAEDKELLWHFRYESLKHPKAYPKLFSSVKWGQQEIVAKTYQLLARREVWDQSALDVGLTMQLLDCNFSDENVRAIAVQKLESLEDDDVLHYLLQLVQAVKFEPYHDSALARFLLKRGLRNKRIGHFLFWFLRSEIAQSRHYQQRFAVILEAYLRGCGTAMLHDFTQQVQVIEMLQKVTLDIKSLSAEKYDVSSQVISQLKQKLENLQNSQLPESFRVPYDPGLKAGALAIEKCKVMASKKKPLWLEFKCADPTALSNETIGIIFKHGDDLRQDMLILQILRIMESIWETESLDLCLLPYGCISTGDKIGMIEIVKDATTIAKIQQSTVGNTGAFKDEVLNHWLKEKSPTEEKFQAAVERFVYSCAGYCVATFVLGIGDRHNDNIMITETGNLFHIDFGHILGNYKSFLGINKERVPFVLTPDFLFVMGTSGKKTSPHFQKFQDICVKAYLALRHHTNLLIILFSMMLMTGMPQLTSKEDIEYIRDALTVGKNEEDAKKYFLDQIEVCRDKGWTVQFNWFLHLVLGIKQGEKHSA

IC50 [1] [nM]	half-life at 1 μM [2] [min]	IC50 [3] [nM]	IC50 [4] [nM]	IC50 [5] [nM]	AUC(0-inf) [6] [ng·h/mL]	bioavailability [6] [%]	Cmax [6] [ng/mL]	AUC(0-inf) [7] [ng·h/mL]	bioavailability [7] [%]	half-life [7] [h]	Cmax [7] [ng/mL]	IC50 (PI3Kα)/IC50(PI3Kγ) ([1]; kinase selectivity for PI3Kγ over PI3Kα)	IC50 (PI3Kβ)/IC50(PI3Kγ) ([1]; kinase selectivity for PI3Kγ over PI3Kβ)	IC50 (PI3Kδ)/IC50(PI3Kγ) ([1]; kinase selectivity for PI3Kγ over PI3Kδ)	half-life ([6]; read-out: Half-life period T½ (converted)) [h]	Compound
0.7	574	143	552	195	–	–	–	–	–	–	–	–	–	–	–	C[C@H](NC(=O)c1c(N)nn2cccnc12)c1nc2ccc(F)c(C#Cc3cnn(C4CC4)c3)c2c(=O)n1-c1ccccc1 [Example 3, (S)-2-amino-N-(1-(5-((1-cyclopropyl-1H-pyrazol-4-yl)ethynyl)-6-fluoro-4-oxo-3-phenyl-3,4-dihydroquinazolin-2-yl)ethyl)pyrazolo[1,5-a]pyrimidine-3-carboxamide]
–	113	–	–	–	–	–	–	–	–	–	–	–	–	–	–	C[C@H](NC(=O)c1c(N)nn2cccnc12)c1nc2cccc(C#Cc3cnn(C)c3)c2c(=O)n1-c1ccccc1 [Compound 21 in WO2015051244A1, reference compound]
–	195	–	–	–	2660	20	484	1950	10	2.4	358	–	–	–	–	C[C@H](NC(=O)c1c(N)nn2cccnc12)c1cc2cccc(C#Cc3cnn(C)c3)c2c(=O)n1-c1ccccc1 [IPI-549, reference compound]
0.46	11700	101	237	461	7470	33	898	3940	27	5.1	587	220	515	1002	3.1	C[C@H](NC(=O)c1c(N)nn2cccnc12)c1cc2cccc(C#Cc3cnn(C4CC4)c3)c2c(=O)n1-c1ccccc1 [Example 1, (S)-2-amino-N-(1-(8-((1-cyclopropyl-1H-pyrazol-4-yl)ethynyl)-1-oxo-2-phenyl-1,2-dihydroisoquinolin-3-yl)ethyl)pyrazolo[1,5-a]pyrimidine-3-carboxamide]

Source: patent US12447151B2, “Alkyne derivative, preparation method for same, and uses thereof” (ZHEJIANG HISUN PHARMACEUTICAL CO., LTD., priority 2019, dated 2025)
